Patent US12227495B2, “Herbicidal compounds” (SYNGENTA CROP PROTECTION AG, priority 2018, dated 2025)

Columns and labels:
Format in all cases: in vivo
Conditions in all cases: evaluated after 13 days
[1] = tested on: Echinochloa crus-galli (ECHCG); assay: Post-emergence herbicide test, glasshouse, percentage damage
Summary of the method: (§1)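 Percentage damage, recorded 13 days after treatment, is given as a five-point score (1=0-20%, 2=21-40%, 3=41-60%, 4=61-80%, 5=81-100%). Plants grown in soil pots under 24/16 °C, 14 h light and 65% humidity received a 500 g/ha spray (unless stated otherwise).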

Setaria faberi (SETFA) [2] = assay: as above
Summary of the method: as §1

[3] = tested on: Ipomoea hederacea (IPOHE); assay: as above
Summary of the method: as §1

Lolium perenne (LOLPE) [4] = assay: as above
Summary of the method: as §1

Solanum nigrum (SOLNI) [5] = assay: as above
Summary of the method: as §1

[6] = tested on: Amaranthus retoflexus (AMARE); assay: as above
Summary of the method: as §1

[7] = tested on: Echinochloa crus-galli (ECHCG); assay: Pre-emergence herbicide test, glasshouse, percentage damage
Summary of the method: as §1

Setaria faberi (SETFA) [8] = assay: as above
Summary of the method: as §1

[9] = tested on: Ipomoea hederacea (IPOHE); assay: as above
Summary of the method: as §1

Lolium perenne (LOLPE) [10] = assay: as above
Summary of the method: as §1

Solanum nigrum (SOLNI) [11] = assay: as above
Summary of the method: as §1

[12] = tested on: Amaranthus retoflexus (AMARE); assay: as above
Summary of the method: as §1

SMILES	percentage damage caused to the plant, ECHCG ([1]; 1000 g/ha)	percentage damage caused to the plant, SETFA (Setaria faberi (SETFA) [2]; 1000 g/ha)	percentage damage caused to the plant, IPOHE ([3]; 1000 g/ha)	percentage damage caused to the plant, LOLPE (Lolium perenne (LOLPE) [4]; 1000 g/ha)	percentage damage caused to the plant, SOLNI (Solanum nigrum (SOLNI) [5]; 1000 g/ha)	percentage damage caused to the plant, AMARE ([6]; 1000 g/ha)	Pre-emergence Test ECHCG percentage damage (five point scale) ([7]; rate 1000 g/ha)	Pre-emergence Test SETFA percentage damage (five point scale) (Setaria faberi (SETFA) [8]; rate 1000 g/ha)	Pre-emergence Test IPOHE percentage damage (five point scale) ([9]; rate 1000 g/ha)	Pre-emergence Test LOLPE percentage damage (five point scale) (Lolium perenne (LOLPE) [10]; rate 1000 g/ha)	Pre-emergence Test SOLNI percentage damage (five point scale) (Solanum nigrum (SOLNI) [11]; rate 1000 g/ha)	Pre-emergence Test AMARE percentage damage (five point scale) ([12]; rate 1000 g/ha)	also measured
N#Cc1cccnc1Oc1cccc(Br)c1-c1cc(C(F)F)no1 [Compound A107]	4 (4=61-80%)	5 (5=81-100%)	4 (4=61-80%)	3 (3=41-60%)	5 (5=81-100%)	5 (5=81-100%)	4 (4=61-80%)	5 (5=81-100%)	3 (3=41-60%)	2 (2=21-40%)	2 (2=21-40%)	5 (5=81-100%)	–
Fc1cc(Cl)cnc1Oc1ccccc1-c1csc(Cl)c1 [Compound A69]	4 (4=61-80%)	3 (3=41-60%)	2 (2=21-40%)	1 (1=0-20%)	4 (4=61-80%)	3 (3=41-60%)	1 (1=0-20%)	1 (1=0-20%)	1 (1=0-20%)	1 (1=0-20%)	1 (1=0-20%)	3 (3=41-60%)	–
Fc1cccc(Oc2cccc(C(F)(F)F)n2)c1-c1cc(C(F)F)no1 [Compound A47]	1 (1=0-20%)	1 (1=0-20%)	1 (1=0-20%)	1 (1=0-20%)	3 (3=41-60%)	3 (3=41-60%)	1 (1=0-20%)	1 (1=0-20%)	1 (1=0-20%)	1 (1=0-20%)	1 (1=0-20%)	1 (1=0-20%)	–
FC(F)c1cc(-c2c(Br)cccc2Oc2cc(C(F)(F)F)ccn2)on1 [Compound A99]	4 (4=61-80%)	4 (4=61-80%)	2 (2=21-40%)	3 (3=41-60%)	4 (4=61-80%)	5 (5=81-100%)	4 (4=61-80%)	4 (4=61-80%)	1 (1=0-20%)	3 (3=41-60%)	1 (1=0-20%)	5 (5=81-100%)	–
Fc1cc(C(F)(F)F)cnc1Oc1cccc(Cl)c1-c1cc(C(F)F)no1 [Compound A117]	4 (4=61-80%)	4 (4=61-80%)	5 (5=81-100%)	4 (4=61-80%)	4 (4=61-80%)	5 (5=81-100%)	4 (4=61-80%)	5 (5=81-100%)	5 (5=81-100%)	4 (4=61-80%)	2 (2=21-40%)	5 (5=81-100%)	–
Fc1cccc(Oc2ccc(C(F)F)cn2)c1-c1cc(C(F)F)no1 [Compound A77]	–	–	–	–	–	–	–	–	–	–	–	–	percentage damage caused to the plant, ECHCG ([1]; 250 g/ha): 2 (2=21-40%); percentage damage caused to the plant, SETFA (Setaria faberi (SETFA) [2]; 250 g/ha): 5 (5=81-100%); percentage damage caused to the plant, IPOHE ([3]; 250 g/ha): 1 (1=0-20%); percentage damage caused to the plant, LOLPE (Lolium perenne (LOLPE) [4]; 250 g/ha): 2 (2=21-40%); percentage damage caused to the plant, SOLNI (Solanum nigrum (SOLNI) [5]; 250 g/ha): 5 (5=81-100%); percentage damage caused to the plant, AMARE ([6]; 250 g/ha): 5 (5=81-100%); Pre-emergence Test ECHCG percentage damage (five point scale) ([7]; rate 250 g/ha): 2 (2=21-40%); Pre-emergence Test SETFA percentage damage (five point scale) (Setaria faberi (SETFA) [8]; rate 250 g/ha): 5 (5=81-100%); Pre-emergence Test IPOHE percentage damage (five point scale) ([9]; rate 250 g/ha): 1 (1=0-20%); Pre-emergence Test LOLPE percentage damage (five point scale) (Lolium perenne (LOLPE) [10]; rate 250 g/ha): 2 (2=21-40%); Pre-emergence Test SOLNI percentage damage (five point scale) (Solanum nigrum (SOLNI) [11]; rate 250 g/ha): 4 (4=61-80%); Pre-emergence Test AMARE percentage damage (five point scale) ([12]; rate 250 g/ha): 5 (5=81-100%)
